Activity calls are given as the source filed them.
Legend:
[1] = target: ADP-ribosylation factor GTPase-activating protein 1 (Rattus norvegicus, UniProt Q62848); experiment: Fluorescence polarization-based biochemical high throughput dose response screening assay to identify inhibitors of ADP-ribosylation factor GTPase activating protein 1 (ARFGAP1).; assay type: functional
Protein Wnt-3a = Protein Wnt-3a (Mus musculus, UniProt P27467); experiment: antagonism of Wnt3a pathway luciferase reporter – Wnt-LIGHT cells, luminescence, selectivity assay for Gli-SUFU antagonist project, dose response (AID 651570); assay type: functional; conditions: read-out: IC50_Mean;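 further: Wnt-LIGHT reporter cells stimulated with conditioned medium from Wnt3a-producing cells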
Sequence of Protein Wnt-3a (P27467 whole entry): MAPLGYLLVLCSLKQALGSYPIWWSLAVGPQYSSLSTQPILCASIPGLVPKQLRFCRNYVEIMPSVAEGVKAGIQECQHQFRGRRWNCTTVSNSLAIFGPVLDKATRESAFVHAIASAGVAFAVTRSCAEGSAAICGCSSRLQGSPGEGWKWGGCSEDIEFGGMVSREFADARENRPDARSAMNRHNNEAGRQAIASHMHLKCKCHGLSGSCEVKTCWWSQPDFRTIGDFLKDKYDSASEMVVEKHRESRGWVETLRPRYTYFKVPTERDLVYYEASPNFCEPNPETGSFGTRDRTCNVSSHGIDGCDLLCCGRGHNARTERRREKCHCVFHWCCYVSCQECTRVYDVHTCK

[2] = target: T1, Orexin/Hypocretin receptor type 1 (Homo sapiens, UniProt O43613); experiment: Homogeneous Time Resolved Fluorescence (HTRF)-based cell-based high throughput dose response assay for antagonists of the orexin 1 receptor (OX1R; HCRTR1). [Related pubchem assays (depositor defined):AID434989, AID435008, AID463079, AID485270, AID492963, AID492964, AID492965, AID493232, AID504717, AID504718]; assay type: functional
T1 sequence (O43613 whole entry): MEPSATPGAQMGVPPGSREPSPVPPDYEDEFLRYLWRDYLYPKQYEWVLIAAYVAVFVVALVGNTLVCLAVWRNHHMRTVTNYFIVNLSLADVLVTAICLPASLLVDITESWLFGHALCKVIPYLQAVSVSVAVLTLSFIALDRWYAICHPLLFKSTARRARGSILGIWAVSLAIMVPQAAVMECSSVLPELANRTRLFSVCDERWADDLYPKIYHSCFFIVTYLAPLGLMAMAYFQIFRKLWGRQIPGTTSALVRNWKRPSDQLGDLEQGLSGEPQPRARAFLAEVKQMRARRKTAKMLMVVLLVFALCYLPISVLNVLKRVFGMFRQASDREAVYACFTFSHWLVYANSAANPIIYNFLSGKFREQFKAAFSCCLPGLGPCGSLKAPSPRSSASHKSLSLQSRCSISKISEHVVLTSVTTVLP

[3] = (§1) Counterscreen for antagonists of the orexin 1 receptor (OX1R; HCRTR1): Fluorescence-based cell-based high throughput dose response assay to identify antagonists of the parental CHO cell line. [Related pubchem assays (depositor defined):AID434989, AID435008, AID463079, AID485270, AID492963, AID492964, AID492965, AID493232, AID504699, AID504701]; assay type: functional
CHO-K1 = experiment: as §1, with “Homogeneous time resolved fluorescence (HTRF)-based” for “Fluorescence-based”, “cell-based” for “cell-based high throughput”, “CHO-K1” for “CHO”; assay type: functional; conditions: Cricetulus griseus;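 further: potency for inhibition of ATP-stimulated IP1 production as antagonists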
[4] = target: T1, Orexin/Hypocretin receptor type 1; experiment: Fluorescence-based cell-based high throughput dose response assay for antagonists of the orexin 1 receptor (OX1R; HCRTR1). [Related pubchem assays (depositor defined):AID434989, AID435008, AID463079, AID485270, AID492963, AID492964, AID492965, AID493232, AID504717, AID504718]; assay type: functional
Orexin receptor type 2 [5] = target: T2, Orexin receptor type 2 (Homo sapiens, UniProt O43614); experiment: Counterscreen assay for antagonists of the orexin 1 receptor (OX1R; HCRTR1): Homogeneous Time Resolved Fluorescence (HTRF)-based cell-based dose response assay for antagonists of the orexin 2 receptor (OX2R; HCRTR2), run by assay provider.; assay type: functional
T2 sequence (O43614 whole entry): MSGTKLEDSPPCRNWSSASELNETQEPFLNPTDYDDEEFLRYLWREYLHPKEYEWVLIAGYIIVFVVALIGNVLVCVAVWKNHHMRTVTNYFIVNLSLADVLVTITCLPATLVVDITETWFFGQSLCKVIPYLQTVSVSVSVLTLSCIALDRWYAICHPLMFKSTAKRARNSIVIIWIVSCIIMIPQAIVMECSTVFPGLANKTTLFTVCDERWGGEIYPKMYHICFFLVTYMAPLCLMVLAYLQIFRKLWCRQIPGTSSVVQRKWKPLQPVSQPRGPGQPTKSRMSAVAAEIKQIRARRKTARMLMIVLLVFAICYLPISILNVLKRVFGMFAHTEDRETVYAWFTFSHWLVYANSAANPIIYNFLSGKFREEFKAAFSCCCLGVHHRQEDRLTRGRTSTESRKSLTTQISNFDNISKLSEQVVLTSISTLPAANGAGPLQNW

[6] = Luminescence Cell-Based Dose Retest to Confirm Inhibitors of Cancer Stem Cells. [Related pubchem assays (depositor defined):AID2717, AID2721]; assay type: functional; conditions: Homo sapiens
Orexin receptor type 2 [7] = target: T2, Orexin receptor type 2; experiment: Counterscreen assay for antagonists of the orexin 1 receptor (OX1R; HCRTR1): Fluorescence-based cell-based dose response assay for antagonists of the orexin 2 receptor (OX2R; HCRTR2), run by assay provider.; assay type: functional
[8] = target: T3, Sentrin-specific protease 1 (Homo sapiens, UniProt Q9P0U3); experiment: Dose response confirmation of small molecule inhibitors of the catalytic domain of the SUMO protease, SENP1 in a FRET assay.; assay type: functional; conditions: read-out: IC50_Mean
T3 sequence (Q9P0U3 whole entry): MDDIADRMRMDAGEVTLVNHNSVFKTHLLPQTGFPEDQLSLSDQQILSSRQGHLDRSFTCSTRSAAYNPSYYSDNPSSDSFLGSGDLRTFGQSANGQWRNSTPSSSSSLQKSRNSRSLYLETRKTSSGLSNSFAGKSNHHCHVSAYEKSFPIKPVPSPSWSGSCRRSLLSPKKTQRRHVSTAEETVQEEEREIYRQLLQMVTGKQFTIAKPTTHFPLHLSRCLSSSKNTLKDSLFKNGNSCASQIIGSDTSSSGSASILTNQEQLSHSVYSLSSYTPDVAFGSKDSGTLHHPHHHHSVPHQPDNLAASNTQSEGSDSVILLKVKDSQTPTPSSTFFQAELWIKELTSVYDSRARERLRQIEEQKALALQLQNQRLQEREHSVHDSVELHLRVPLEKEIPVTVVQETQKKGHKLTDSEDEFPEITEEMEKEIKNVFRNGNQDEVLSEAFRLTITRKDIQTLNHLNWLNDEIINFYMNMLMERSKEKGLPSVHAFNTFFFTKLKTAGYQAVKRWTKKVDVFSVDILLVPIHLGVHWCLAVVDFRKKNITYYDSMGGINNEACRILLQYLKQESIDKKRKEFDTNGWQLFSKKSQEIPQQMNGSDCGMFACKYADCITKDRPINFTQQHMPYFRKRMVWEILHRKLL

[9] = fluconazole-exposed Candida albicans growth modulators – fluorescence, retest, confirmation (AID 2467); assay type: functional, cell-based
[10] = target: T4, Methionyl-tRNA synthetase, putative (Trypanosoma brucei brucei, UniProt Q38C91); assay type: functional, Trypanosoma brucei brucei strain 927/4 GUTat10.1
T4 sequence (Q38C91 whole entry): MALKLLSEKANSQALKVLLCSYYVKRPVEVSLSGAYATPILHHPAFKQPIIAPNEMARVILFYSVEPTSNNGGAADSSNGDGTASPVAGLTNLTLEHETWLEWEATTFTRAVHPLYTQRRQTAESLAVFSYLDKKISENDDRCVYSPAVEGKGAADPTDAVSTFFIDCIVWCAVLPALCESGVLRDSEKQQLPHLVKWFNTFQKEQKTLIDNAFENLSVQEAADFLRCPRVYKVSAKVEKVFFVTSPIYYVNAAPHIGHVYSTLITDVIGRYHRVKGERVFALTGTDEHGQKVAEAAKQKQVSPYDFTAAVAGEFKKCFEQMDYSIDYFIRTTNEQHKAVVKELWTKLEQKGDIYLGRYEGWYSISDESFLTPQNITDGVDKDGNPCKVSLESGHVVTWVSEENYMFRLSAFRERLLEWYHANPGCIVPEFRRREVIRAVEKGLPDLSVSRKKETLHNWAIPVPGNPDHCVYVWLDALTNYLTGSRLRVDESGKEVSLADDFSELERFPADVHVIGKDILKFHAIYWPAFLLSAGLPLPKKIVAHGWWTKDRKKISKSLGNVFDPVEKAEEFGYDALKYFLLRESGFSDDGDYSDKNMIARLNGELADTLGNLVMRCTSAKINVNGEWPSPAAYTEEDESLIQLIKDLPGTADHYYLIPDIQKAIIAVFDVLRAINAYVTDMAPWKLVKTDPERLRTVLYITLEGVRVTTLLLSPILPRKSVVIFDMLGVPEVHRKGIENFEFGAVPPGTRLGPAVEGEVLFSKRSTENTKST

[11] = NIH-3T3 fibroblast cytotoxicity, dose response, cytotoxicity control, cell-based, fluorescence, Alamar Blue, secondary assay (AID 2327); assay type: functional;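 further: NIH-3T3 mouse fibroblasts cultured with fluconazole at 8 µg/mL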
[12] = target: T3, Sentrin-specific protease 1; experiment: SENP1 catalytic domain blockers, concentration series – biochemical, kinetic FRET, dose response (AID 651697); assay type: functional; conditions: read-out: IC50_Mean
[13] = Counterscreen for inhibitors of Trypanosoma brucei methionyl tRNA synthetase (MetRS): Luminescence-based cell-based high throughput dose response assay to identify compounds that are cytotoxic to Jurkat human T lymphocyte cells.; assay type: functional
[14] = target: T4, Methionyl-tRNA synthetase, putative; assay type: functional, Trypanosoma brucei brucei strain 927/4 GUTat10.1; remark: listed apart in the source
[15] = target: T5, Rac GTPase-activating protein 1 (Homo sapiens, UniProt Q9H0H5); experiment: blockers of MgcRacGAP-driven Rac1 GTP hydrolysis – biochemical, ADP Hunter fluorescence, primary and confirmatory, confirmation (AID 624330); assay type: functional
T5 sequence (Q9H0H5 whole entry): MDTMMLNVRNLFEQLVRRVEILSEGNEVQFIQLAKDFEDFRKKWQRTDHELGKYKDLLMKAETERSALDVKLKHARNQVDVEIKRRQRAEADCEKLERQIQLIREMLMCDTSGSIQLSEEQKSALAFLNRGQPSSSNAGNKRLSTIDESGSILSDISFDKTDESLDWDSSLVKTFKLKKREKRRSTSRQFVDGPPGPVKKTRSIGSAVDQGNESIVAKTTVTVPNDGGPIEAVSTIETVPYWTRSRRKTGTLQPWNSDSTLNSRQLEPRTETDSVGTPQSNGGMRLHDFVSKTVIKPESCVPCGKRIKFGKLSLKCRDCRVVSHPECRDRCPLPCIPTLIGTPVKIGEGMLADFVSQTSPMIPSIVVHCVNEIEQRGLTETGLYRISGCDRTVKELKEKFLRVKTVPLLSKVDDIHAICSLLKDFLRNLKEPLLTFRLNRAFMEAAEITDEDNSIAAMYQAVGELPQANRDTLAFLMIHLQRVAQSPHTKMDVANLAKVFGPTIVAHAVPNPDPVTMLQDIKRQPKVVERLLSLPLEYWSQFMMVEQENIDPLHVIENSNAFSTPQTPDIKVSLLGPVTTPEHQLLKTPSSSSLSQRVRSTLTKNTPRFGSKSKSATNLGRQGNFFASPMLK

Steroidogenic factor 1 = Steroidogenic factor 1 (Homo sapiens, UniProt Q13285); experiment: Counterscreen for inverse agonists of the liver receptor homolog-1 (LRH-1; NR5A2): Luminescence-based cell-based high throughput dose response assay to identify inverse agonists of the Steroidogenic Factor 1 Nuclear Receptor (SF1; NR5A1).; assay type: functional
Sequence of Steroidogenic factor 1 (Q13285 whole entry): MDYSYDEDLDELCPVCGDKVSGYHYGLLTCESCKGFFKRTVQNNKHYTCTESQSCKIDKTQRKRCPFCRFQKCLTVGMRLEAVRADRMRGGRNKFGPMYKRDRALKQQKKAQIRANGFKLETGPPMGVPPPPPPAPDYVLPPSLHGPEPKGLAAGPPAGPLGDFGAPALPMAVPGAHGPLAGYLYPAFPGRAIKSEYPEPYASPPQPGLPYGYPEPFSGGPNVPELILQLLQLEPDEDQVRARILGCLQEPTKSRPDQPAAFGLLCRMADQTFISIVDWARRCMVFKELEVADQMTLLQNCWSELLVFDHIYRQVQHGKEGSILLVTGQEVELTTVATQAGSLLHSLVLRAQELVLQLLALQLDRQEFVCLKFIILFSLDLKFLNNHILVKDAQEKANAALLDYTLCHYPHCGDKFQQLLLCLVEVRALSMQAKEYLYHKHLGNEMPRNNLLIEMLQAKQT

[16] = target: Nuclear receptor subfamily 5 group A member 2 (Homo sapiens, UniProt O00482); assay type: functional, cell-based;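 further: HEK293T cells transfected with LRH-1 and a StAR promoter luciferase reporter; potency for inhibitors that lower LRH-1 driven reporter light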
Sequence of Nuclear receptor subfamily 5 group A member 2 (O00482 whole entry): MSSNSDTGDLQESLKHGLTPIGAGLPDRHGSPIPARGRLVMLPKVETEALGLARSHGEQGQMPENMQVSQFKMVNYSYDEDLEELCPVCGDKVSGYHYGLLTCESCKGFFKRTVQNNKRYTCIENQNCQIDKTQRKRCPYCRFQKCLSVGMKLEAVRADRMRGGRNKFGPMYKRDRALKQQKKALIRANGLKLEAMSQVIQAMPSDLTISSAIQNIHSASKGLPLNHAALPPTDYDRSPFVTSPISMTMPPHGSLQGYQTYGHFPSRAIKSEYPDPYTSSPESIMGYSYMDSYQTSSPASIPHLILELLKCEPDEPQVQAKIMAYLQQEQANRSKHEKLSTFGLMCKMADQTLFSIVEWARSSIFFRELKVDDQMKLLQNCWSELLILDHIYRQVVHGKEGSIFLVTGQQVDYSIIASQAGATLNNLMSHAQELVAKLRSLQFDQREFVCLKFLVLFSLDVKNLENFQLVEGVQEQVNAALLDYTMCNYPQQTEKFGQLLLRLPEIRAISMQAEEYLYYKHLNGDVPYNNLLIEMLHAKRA

[17] = nonselective StAR promoter luciferase inhibitors – cell-based, luminescence, luciferase reporter, counter-screen for LRH-1 inverse agonist project, dose response (AID 651969); assay type: functional
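Wherever AC50 is given: cells exposed to compound for roughly 70 hours or longer before luminescence read.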

Sequence of ADP-ribosylation factor GTPase-activating protein 1 (Q62848 whole entry): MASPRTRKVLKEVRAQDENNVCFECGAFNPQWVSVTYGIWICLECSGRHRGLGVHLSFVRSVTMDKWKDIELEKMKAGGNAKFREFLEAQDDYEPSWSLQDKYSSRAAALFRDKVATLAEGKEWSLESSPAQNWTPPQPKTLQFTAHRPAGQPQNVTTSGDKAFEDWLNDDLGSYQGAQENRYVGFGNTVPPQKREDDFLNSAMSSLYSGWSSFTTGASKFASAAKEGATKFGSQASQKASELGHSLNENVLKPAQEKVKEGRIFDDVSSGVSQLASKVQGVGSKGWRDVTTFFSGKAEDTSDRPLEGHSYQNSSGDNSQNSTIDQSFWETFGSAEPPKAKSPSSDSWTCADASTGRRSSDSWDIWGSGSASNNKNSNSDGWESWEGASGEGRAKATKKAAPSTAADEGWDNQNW

SMILES: COc1ccc2oc(C(=O)OCC(=O)N3CC(C)CC(C)C3)c(C)c2c1 (centres undefined)
- IC50 [1]: 44.9 µM (inactive)

SMILES: Cc1ccc(C)c([N+]2=C3CCCCN3C(O)(c3cccs3)C2)c1 (centres undefined)
- IC50 (Protein Wnt-3a): 13.2 µM (active)

SMILES: Cn1c2ccccc2c(=O)c2cc(C#Cc3ccccn3)ccc21
- IC50 [2]: 0.413 µM (active)
- IC50 [3]: > 49.7 µM (inactive)
- IC50 (CHO-K1): > 66.2 µM (inactive)
- IC50 [4]: 3.9 µM (active)
- IC50 (Orexin receptor type 2 [5]): > 50 µM (inactive)
- AC50 [6]: 9.17 µM (active)
- IC50 (Orexin receptor type 2 [7]): > 88.8 µM (inactive)

SMILES: CC(=O)c1ccc(N2CCN(c3ccc(C(F)(F)F)cn3)CC2)cc1
- IC50 (Protein Wnt-3a): 24.3 µM (inactive)

SMILES: Cc1c(C(=O)OCC(=O)NCCN2C(=O)CSC2=O)oc2c1ccc1ccccc12
- IC50 [2]: 1.23 µM (active)
- IC50 [3]: > 49.7 µM (inactive)
- IC50 (CHO-K1): > 66.2 µM (inactive)
- IC50 [4]: 6.78 µM (active)
- IC50 (Orexin receptor type 2 [5]): > 50 µM (inactive)
- IC50 (Orexin receptor type 2 [7]): > 88.8 µM (inactive)

SMILES: CCOc1cc(/C=C2\SC(=S)N(NS(=O)(=O)c3ccccc3)C2=O)ccc1O
- IC50 [8]: 2.41 µM (active)
- EC50 [9]: 1.88 µM (active)
- IC50 [10]: 41.8 µM (inactive)
- EC50 [11]: > 150 µM (inactive)
- IC50 [12]: 3.73 µM (active)
- IC50 [13]: 83.3 µM (inactive)
- IC50 [14]: 122 µM (inactive)

SMILES: COc1cc(/C=C2\SC(=Nc3c(C)n(C)n(-c4ccccc4)c3=O)NC2=O)ccc1O
- IC50 [8]: 11.2 µM (active)
- IC50 [15]: 38.7 µM (active)
- IC50 [12]: 15.5 µM (active)

SMILES: Fc1cccc(Nc2nc3ccccc3n3cnnc23)c1
- IC50 [2]: 2.03 µM (active)
- IC50 [3]: > 49.8 µM (inactive)
- IC50 (CHO-K1): > 66.3 µM (inactive)
- IC50 [4]: 7.59 µM (active)
- IC50 (Orexin receptor type 2 [5]): 2.13 µM (active)
- IC50 (Orexin receptor type 2 [7]): > 88.8 µM (inactive)

SMILES: C=CCNc1nc(NCCOC)c2sc(-c3ccccc3)cc2n1
- IC50 [1]: 101 µM (inactive)

SMILES: C[C@H](O)[C@@H]1CN2CCc3c([nH]c4ccccc34)[C@@H]2C[C@@H]1N(C)C(=O)Nc1cc(Cl)cc(Cl)c1
- IC50 [10]: 8.53 µM (active)
- IC50 [13]: 15.8 µM (inactive)
- IC50 [14]: 14.9 µM (inactive)

SMILES: CC(C)CC1(C)NC(=O)N(CC(=O)Nc2ccc3c(c2)OCCO3)C1=O (centres undefined)
- IC50 (Steroidogenic factor 1): 7.12 µM (active)
- IC50 [16]: 42.7 µM (inactive)
- IC50 [17]: 35.9 µM (inactive)

From ChEMBL document CHEMBL1201862, “PubChem BioAssay data set” (2004)
